AC50 data for 17 compounds are collected here from ChEMBL document CHEMBL5291721, “A preclinical secondary pharmacology resource illuminates target-adverse drug reaction associations of marketed drugs” (Nat Commun, 2023).

The structures appear in SMILES notation.

Assay [1] addresses Acetylcholinesterase (Homo sapiens, UniProt P22303). It counts as functional.
Assay [2] concerns the target T1, Alpha-2A adrenergic receptor (Homo sapiens, UniProt P08913).
T1 sequence (P08913 whole entry): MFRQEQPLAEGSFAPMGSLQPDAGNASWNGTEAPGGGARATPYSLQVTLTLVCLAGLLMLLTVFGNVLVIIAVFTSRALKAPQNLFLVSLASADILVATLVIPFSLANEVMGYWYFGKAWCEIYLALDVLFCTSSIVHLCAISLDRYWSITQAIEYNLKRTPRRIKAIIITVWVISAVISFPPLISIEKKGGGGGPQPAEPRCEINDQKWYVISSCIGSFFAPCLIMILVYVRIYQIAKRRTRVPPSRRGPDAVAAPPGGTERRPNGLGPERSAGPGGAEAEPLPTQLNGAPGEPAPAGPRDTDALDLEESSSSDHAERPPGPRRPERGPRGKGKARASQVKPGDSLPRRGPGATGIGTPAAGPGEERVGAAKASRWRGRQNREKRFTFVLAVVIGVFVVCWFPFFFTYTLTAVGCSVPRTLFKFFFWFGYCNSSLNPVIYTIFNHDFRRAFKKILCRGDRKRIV

For assay [3], the target named is D(1A) dopamine receptor (Homo sapiens, UniProt P21728).
Assay [4] concerns the target D(3) dopamine receptor (Homo sapiens, UniProt P35462).
Assay [5] concerns the target Gamma-aminobutyric acid receptor subunit alpha-1/alpha-2/beta-2/gamma-2 (Homo sapiens, UniProt P14867+P18507+P47869+P47870). It counts as protein-complex assay.
In assay [6] the target is T2, Amine oxidase [flavin-containing] A (Homo sapiens, UniProt P21397).
T2 sequence (P21397 whole entry): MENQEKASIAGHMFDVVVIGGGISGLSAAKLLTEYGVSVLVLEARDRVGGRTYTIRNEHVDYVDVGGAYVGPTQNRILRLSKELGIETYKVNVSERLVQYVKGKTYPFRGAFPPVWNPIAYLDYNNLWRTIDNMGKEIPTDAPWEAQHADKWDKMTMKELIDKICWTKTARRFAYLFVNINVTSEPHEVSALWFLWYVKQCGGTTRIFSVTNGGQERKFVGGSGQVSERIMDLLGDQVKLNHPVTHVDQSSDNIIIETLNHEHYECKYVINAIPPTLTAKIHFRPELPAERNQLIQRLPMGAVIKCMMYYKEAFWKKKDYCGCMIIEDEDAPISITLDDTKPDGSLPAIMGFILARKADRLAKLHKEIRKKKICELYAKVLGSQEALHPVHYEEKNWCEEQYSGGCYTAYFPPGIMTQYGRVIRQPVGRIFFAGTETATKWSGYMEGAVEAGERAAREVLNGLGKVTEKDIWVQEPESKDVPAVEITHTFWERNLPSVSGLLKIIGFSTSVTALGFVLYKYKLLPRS
The assay is classed as functional.

For assay [7], the target named is Sodium-dependent noradrenaline transporter (Homo sapiens, UniProt P23975).
The target in assay [8] is Sodium-dependent dopamine transporter (Homo sapiens, UniProt Q01959).
For assay [9], the target named is T3, Neuropeptide Y receptor type 1 (Homo sapiens, UniProt P25929).
T3 sequence (P25929 whole entry): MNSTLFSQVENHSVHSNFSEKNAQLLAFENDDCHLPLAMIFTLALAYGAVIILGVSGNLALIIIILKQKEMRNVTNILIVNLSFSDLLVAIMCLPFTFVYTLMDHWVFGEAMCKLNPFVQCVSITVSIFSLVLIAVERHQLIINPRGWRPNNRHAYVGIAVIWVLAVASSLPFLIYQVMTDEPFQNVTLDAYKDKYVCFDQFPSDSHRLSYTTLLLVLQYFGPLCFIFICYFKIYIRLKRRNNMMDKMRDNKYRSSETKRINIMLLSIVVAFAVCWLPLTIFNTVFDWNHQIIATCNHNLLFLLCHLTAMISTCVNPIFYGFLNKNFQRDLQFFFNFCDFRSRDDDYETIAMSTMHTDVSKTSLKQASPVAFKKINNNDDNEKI

The target of assay [10] is Delta-type opioid receptor (Homo sapiens, UniProt P41143).
Assay [11] concerns the target Gamma-aminobutyric acid receptor subunit alpha-1 (Rattus norvegicus, UniProt P62813).
Also: assay procedure not described here.

Chain of D(1A) dopamine receptor (P21728 whole entry): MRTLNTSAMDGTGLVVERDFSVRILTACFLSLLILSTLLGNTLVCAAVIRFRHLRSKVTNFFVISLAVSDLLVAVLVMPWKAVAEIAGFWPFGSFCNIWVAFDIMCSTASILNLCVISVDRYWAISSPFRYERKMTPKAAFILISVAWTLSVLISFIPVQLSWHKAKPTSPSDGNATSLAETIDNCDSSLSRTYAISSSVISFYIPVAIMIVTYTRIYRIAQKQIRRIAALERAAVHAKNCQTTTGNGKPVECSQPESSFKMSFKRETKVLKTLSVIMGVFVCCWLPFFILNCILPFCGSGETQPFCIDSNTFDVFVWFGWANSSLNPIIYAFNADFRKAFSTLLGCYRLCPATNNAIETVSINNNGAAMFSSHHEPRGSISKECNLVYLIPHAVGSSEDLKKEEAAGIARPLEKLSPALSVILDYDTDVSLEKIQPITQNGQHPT
Chain of Gamma-aminobutyric acid receptor subunit alpha-1/alpha-2/beta-2/gamma-2 (P14867 whole entry): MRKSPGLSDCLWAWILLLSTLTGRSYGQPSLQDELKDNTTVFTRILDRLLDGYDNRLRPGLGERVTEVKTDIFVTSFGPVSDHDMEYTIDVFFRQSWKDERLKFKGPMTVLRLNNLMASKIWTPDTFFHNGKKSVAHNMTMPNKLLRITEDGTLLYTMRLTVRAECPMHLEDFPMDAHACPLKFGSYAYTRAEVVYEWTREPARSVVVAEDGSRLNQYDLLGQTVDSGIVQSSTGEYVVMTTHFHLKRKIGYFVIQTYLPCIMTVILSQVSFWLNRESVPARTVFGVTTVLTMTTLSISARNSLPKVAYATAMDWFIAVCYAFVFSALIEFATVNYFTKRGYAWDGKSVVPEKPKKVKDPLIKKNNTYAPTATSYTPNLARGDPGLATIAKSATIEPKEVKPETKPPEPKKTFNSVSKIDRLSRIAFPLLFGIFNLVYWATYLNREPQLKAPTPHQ
Chain of Gamma-aminobutyric acid receptor subunit alpha-1/alpha-2/beta-2/gamma-2 (P47870 whole entry): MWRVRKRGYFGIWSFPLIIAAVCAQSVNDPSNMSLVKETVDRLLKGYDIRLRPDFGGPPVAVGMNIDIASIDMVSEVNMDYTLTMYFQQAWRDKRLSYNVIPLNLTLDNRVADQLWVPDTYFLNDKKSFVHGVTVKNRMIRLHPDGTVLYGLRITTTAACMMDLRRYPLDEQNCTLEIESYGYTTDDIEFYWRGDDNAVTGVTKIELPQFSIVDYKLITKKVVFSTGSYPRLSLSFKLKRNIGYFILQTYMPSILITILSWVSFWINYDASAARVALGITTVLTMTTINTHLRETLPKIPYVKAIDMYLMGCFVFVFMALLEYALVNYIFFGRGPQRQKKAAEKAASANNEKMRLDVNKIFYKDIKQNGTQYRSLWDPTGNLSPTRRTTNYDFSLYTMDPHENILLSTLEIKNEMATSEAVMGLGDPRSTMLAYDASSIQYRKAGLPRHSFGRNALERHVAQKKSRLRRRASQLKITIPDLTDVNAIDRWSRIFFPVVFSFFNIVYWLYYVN
Chain of Gamma-aminobutyric acid receptor subunit alpha-1/alpha-2/beta-2/gamma-2 (P18507 whole entry): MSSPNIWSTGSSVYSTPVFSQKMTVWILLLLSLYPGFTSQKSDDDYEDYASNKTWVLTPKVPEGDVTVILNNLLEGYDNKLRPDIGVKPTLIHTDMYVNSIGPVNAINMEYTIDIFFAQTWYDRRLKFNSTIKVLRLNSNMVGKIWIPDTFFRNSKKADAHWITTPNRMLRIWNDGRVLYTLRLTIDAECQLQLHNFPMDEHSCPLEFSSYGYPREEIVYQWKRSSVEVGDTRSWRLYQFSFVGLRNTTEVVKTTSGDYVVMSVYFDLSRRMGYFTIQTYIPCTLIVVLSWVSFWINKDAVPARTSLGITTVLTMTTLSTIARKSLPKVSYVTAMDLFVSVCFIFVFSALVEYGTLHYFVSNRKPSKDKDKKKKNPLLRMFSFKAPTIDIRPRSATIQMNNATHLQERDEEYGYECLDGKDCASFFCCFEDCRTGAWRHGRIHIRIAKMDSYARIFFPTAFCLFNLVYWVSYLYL
Chain of Gamma-aminobutyric acid receptor subunit alpha-1/alpha-2/beta-2/gamma-2 (P47869 whole entry): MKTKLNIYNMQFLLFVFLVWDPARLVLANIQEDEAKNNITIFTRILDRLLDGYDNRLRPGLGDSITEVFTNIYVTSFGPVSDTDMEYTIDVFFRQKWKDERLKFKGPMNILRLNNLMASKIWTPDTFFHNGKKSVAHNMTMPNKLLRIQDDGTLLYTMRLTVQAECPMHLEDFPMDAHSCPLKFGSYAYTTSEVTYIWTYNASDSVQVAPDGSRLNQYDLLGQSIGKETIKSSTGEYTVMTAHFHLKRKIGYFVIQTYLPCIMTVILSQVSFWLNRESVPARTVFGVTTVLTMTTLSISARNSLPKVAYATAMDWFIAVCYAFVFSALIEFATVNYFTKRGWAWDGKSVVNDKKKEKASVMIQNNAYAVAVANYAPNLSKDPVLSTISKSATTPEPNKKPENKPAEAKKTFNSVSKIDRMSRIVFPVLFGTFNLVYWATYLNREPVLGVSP
Chain of Acetylcholinesterase (P22303 whole entry): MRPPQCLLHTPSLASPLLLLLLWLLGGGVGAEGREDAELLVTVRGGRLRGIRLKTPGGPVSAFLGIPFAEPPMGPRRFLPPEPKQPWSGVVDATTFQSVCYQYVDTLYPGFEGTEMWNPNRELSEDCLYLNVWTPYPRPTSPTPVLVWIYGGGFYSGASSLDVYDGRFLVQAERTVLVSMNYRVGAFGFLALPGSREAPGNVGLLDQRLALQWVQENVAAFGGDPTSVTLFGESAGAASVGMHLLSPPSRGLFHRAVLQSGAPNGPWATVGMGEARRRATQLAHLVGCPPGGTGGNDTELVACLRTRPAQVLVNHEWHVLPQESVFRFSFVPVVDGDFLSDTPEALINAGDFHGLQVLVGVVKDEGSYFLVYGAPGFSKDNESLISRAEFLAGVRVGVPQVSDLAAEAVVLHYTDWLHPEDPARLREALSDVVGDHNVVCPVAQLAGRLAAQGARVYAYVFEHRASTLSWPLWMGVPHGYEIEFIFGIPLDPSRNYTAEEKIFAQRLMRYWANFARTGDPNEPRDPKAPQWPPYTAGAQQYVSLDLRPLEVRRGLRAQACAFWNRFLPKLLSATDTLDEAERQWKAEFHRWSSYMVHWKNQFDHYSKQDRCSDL
Chain of Sodium-dependent dopamine transporter (Q01959 whole entry): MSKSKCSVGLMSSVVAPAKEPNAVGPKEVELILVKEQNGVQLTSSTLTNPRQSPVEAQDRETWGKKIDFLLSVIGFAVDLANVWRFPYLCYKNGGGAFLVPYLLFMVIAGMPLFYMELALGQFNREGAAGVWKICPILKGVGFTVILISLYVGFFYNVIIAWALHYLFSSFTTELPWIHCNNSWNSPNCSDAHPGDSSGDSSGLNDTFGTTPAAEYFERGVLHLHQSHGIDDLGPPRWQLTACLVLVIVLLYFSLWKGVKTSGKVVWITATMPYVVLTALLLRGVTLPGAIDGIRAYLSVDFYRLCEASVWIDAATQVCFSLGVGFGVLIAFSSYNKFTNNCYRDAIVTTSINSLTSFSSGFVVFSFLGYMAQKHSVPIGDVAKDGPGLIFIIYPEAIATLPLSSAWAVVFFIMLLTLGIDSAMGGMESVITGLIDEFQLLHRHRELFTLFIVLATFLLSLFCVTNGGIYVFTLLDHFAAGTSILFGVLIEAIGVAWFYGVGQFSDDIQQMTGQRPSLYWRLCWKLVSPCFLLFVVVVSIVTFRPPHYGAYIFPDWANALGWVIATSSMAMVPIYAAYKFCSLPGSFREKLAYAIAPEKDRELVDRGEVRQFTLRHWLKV
Chain of Sodium-dependent noradrenaline transporter (P23975 whole entry): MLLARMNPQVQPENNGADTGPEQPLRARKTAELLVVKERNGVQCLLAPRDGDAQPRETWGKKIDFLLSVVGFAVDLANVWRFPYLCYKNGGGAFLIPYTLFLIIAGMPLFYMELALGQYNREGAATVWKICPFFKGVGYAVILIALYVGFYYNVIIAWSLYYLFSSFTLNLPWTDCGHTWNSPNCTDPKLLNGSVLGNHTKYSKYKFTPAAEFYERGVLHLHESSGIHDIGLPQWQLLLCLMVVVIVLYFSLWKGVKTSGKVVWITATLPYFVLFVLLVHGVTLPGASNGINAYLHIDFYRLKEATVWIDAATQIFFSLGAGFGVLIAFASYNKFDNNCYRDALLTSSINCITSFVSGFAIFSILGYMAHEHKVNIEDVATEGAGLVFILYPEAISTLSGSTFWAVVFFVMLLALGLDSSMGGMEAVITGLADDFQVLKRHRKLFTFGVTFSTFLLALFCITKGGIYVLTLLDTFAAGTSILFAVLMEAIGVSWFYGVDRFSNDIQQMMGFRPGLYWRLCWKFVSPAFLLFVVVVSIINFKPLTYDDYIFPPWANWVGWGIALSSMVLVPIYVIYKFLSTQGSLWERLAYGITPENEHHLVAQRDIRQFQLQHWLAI
Chain of D(3) dopamine receptor (P35462 whole entry): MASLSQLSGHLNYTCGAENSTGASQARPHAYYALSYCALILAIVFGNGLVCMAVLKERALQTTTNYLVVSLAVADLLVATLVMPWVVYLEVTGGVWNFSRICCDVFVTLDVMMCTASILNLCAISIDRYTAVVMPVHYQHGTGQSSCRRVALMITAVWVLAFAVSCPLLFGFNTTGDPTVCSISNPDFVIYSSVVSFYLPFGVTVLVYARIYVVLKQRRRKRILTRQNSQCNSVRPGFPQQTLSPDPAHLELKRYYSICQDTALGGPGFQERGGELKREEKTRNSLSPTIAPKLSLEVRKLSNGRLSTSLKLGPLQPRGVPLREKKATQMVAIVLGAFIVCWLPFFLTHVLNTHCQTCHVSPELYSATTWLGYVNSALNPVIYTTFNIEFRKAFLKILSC
Chain of Delta-type opioid receptor (P41143 whole entry): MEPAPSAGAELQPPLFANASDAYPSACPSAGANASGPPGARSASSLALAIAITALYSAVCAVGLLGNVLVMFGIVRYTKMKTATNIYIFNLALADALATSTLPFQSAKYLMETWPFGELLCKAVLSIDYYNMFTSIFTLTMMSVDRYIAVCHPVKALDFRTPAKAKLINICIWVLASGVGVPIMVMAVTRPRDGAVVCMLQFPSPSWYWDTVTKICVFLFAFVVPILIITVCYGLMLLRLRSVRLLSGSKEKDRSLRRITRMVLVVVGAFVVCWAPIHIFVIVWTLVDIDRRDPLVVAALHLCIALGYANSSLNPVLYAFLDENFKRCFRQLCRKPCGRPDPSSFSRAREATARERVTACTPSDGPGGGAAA

As to `CCCNC(C)C(=O)Nc1c(C)csc1C(=O)OC` (stereo not given) [ARTICAINE], the AC50 in assay [1], in [2], in assay [3], in assay [4], in assay [5] and in assay [6] was > 30 µM throughout. Besides, the concentration at half-maximal activity (AC50) in [7] and in [8] was > 30 µM in each case.

As to `CC(=O)Oc1c(C)c(C)c2c(c1C)CC[C@@](C)(CCC[C@H](C)CCC[C@H](C)CCCC(C)C)O2`, the AC50 in [1], in assay [2], in assay [3], in assay [4], in [5] and in [6] was > 30 µM in each case. Further, the AC50 in assay [7] and in [8] was > 30 µM in each case.

As to `CC[C@@H](C(N)=O)N1CCCC1=O`, the AC50 in assay [1], in assay [2], in assay [3], in [4], in assay [5] and in assay [6] was > 30 µM in each case. Besides, the AC50 in [9], in [10], in assay [7] and in assay [8] was > 30 µM each time.

Consider `COc1cc2c3cc1Oc1cc(ccc1O)C[C@@H]1c4c(cc(OC)c(O)c4Oc4ccc(cc4)C[C@@H]3N(C)CC2)CC[N+]1(C)C` [TUBOCURARINE], for which the half-maximal activity concentration (AC50) in assay [1], in assay [2], in [3], in assay [4], in assay [5] and in assay [6] was > 30 µM in each case. Moreover, the concentration at half-maximal activity (AC50) in assay [7] and in [8] was > 30 µM each time.

Take `CC(C)(C)C(=O)C(Oc1ccc(Cl)cc1)n1ccnc1` (stereo not given) [CLIMBAZOLE]: the AC50 in assay [1], in assay [2], in assay [3], in [4], in assay [5] and in assay [6] was > 30 µM in each case. Besides, the AC50 in [7] stood at 20.8 µM; in assay [8] it was 0.0662 µM.

On to `OC[C@@H](O)[C@H](O)[C@@H](O)CO` [XYLITOL], for which the concentration at half-maximal activity (AC50) in [1], in assay [2], in assay [3], in assay [4], in assay [5] and in assay [6] was > 30 µM throughout. Besides, the half-maximal activity concentration (AC50) in assay [7] and in assay [8] was > 30 µM in each case.

`NNc1nnc(NN)c2ccccc12` [DIHYDRALAZINE]: the AC50 in [1] is > 30 µM; in assay [2] it was > 30 µM; in assay [3], > 30 µM; in [4], > 30 µM; in assay [5], > 30 µM; in assay [6] it was 26.4 µM. In addition, the concentration at half-maximal activity (AC50) in [7] and in [8] was > 30 µM throughout.

With `C=CCN1C[C@H](C(=O)N(CCCN(C)C)C(=O)NCC)C[C@@H]2c3cccc4[nH]cc(c34)C[C@H]21` [CABERGOLINE], the half-maximal activity concentration (AC50) in assay [1] is 11.4 µM; in [3] it was 0.648 µM; in assay [4] it was 0.003 µM; in [11] it was > 10 µM; in [5], > 30 µM; in [6], > 30 µM. Further, the concentration at half-maximal activity (AC50) in [9] was > 10 µM; in assay [10] it was > 30 µM; in assay [7], 29.6 µM; in assay [8] it was 4.64 µM.

For `CC(=O)Oc1ccc2c(c1)CC[C@@H]1[C@@H]2CC[C@]2(C)[C@@H](O)CC[C@@H]12` [ESTRADIOL ACETATE], the AC50 in assay [1], in assay [2], in assay [3], in [4], in assay [5] and in assay [6] was > 30 µM in each case. The AC50 in assay [7] is > 30 µM; in [8] it was 8.09 µM.

Consider `CC(=O)c1ccc2c(c1)N(CCCN(C)C)c1ccccc1S2` [ACEPROMAZINE], for which the half-maximal activity concentration (AC50) in assay [1] was > 30 µM; in [2], 0.418 µM; in assay [3] it was 0.0259 µM; in assay [4], 0.0087 µM; in [5], > 30 µM; in assay [6], > 30 µM. Besides, the AC50 in [7] turned out to be 0.161 µM; in assay [8] it was 19.5 µM.

Consider `O=c1[nH]c(=O)n([C@H]2C[C@H](O)[C@@H](CO)O2)cc1I` [IDOXURIDINE], for which the AC50 in assay [1], in assay [2], in [3], in [4], in [5] and in assay [6] was > 30 µM throughout. Also, the AC50 in assay [7] and in [8] was > 30 µM in each case.

As to `CC(C)C[C@H]1C(=O)N2CCC[C@H]2[C@]2(O)O[C@](NC(=O)[C@@H]3C[C@@H]4c5cccc6[nH]cc(c56)C[C@H]4N(C)C3)(C(C)C)C(=O)N12` [DIHYDROERGOCRYPTINE], the AC50 in assay [1] was > 30 µM; in assay [2], 0.847 µM; in assay [3], 0.597 µM; in assay [4], 0.202 µM; in [5], > 30 µM; in [6] it was > 30 µM. For the same compound, the AC50 in assay [7] and in assay [8] was > 30 µM each time.

Regarding `O=c1[nH]c(=O)n([C@H]2C[C@H](O)[C@@H](CO)O2)cc1F` [FLOXURIDINE], the concentration at half-maximal activity (AC50) in assay [1], in assay [2], in assay [3], in [4], in [5] and in assay [6] was > 30 µM in each case. For the same compound, the AC50 in assay [7] and in assay [8] was > 30 µM each time.

In the case of `N=c1ccn2c(n1)O[C@H]1[C@H](O)[C@@H](CO)O[C@H]12` [ANCITABINE], the AC50 in assay [1], in assay [2], in assay [3], in assay [4], in [5] and in assay [6] was > 30 µM in each case. Also, the AC50 in assay [7] and in assay [8] was > 30 µM each time.

As to `CCOC(=O)[C@H](CCc1ccccc1)N[C@@H](C)C(=O)N1CC2(C[C@H]1C(=O)O)SCCS2`, the half-maximal activity concentration (AC50) in [1], in assay [2], in [3], in assay [4], in assay [5] and in [6] was > 30 µM throughout. For the same compound, the AC50 in assay [7] and in assay [8] was > 30 µM each time.

As for `CCN(CC)CCOC(=O)C(c1ccccc1)C1CCCCC1` (stereo not given) [DROFENINE], the AC50 was > 30 µM in assay [1]; 24.1 µM in [2]; 13.7 µM in assay [3]; 0.217 µM in assay [4]; > 30 µM in assay [5]; > 30 µM in assay [6]. Also, the half-maximal activity concentration (AC50) in assay [7] was 13 µM; in assay [8], 0.219 µM.

As to `NC1=NCC2c3ccccc3Cc3ccccc3N12` (stereo not given) [EPINASTINE], the concentration at half-maximal activity (AC50) is > 30 µM in [1]; 0.253 µM in assay [2]; 0.125 µM in assay [3]; > 30 µM in assay [4]; 28.3 µM in assay [5]; > 30 µM in [6]. For the same compound, the half-maximal activity concentration (AC50) was 4.58 µM in assay [7] and > 30 µM in assay [8].

For orientation: AC50 means the concentration giving half of the maximal activity seen.
